US20130029970A1 (priority 2009, published 2013)
Like-named read-outs stand apart in the source and are kept apart here.

Legend:
human CB1 (hCB1) = target: T1, human CB1 (hCB1) (Homo sapiens, UniProt P21554); assay: 35S GTPγS binding assay, hCB1 agonist; assay type: biochemical
T1 construct: (cDNA clone) CNR01L000

human CB2 receptors = target: T2, human CB2 receptors (Homo sapiens, UniProt P34972); assay: cAMP assay in HEK-293 cells, hCB2 agonist; assay type: cell-based
T2 construct: (cDNA clone) CNR0200000
Outline: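 Stable hCB2 HEK-293 cells in HBSS/10 mM HEPES/0.1% fatty-acid-free BSA incubated 30 min at 37° C with compound; forskolin 90 uM in 3× compound mix.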

human CB1 receptors = target: T3, human CB1 receptors (Homo sapiens, UniProt P21554); assay: cAMP assay in HEK-293 cells, hCB1 agonist; assay type: cell-based
T3 construct: (cDNA clone) CNR01L000
Outline: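 Agonist EC50 taken as concentration giving half inhibition of forskolin-driven cAMP, normalized to forskolin maximum, from sigmoidal curves. Whole HEK-293 cells stably expressing hCB1, in HEPES/BSA-containing HBSS, exposed 30 min at 37° C. to compound with forskolin (90 uM in 3× dilution); cAMP read after lysis.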

[1] = GTPγS agonist, HEK-293 membranes, read-out: hCB1 EC50 (GTPyS ag)
[2] = inhibition of forskolin-stimulated cAMP, HEK-293 cells, read-out: hCB1 EC50 (cAMP ag)
[3] = inhibition of forskolin-stimulated cAMP, HEK-293 cells

T2 sequence (P34972 whole entry): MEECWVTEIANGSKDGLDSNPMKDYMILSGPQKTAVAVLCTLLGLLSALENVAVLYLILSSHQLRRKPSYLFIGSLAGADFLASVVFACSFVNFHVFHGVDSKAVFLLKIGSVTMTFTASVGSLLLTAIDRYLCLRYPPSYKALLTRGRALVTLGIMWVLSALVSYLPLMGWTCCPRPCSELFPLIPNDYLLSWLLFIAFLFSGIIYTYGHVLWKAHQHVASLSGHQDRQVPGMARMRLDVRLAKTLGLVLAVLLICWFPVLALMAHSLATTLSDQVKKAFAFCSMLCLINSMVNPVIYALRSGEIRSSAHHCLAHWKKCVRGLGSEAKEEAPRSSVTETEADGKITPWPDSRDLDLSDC
T3 sequence (P21554 whole entry): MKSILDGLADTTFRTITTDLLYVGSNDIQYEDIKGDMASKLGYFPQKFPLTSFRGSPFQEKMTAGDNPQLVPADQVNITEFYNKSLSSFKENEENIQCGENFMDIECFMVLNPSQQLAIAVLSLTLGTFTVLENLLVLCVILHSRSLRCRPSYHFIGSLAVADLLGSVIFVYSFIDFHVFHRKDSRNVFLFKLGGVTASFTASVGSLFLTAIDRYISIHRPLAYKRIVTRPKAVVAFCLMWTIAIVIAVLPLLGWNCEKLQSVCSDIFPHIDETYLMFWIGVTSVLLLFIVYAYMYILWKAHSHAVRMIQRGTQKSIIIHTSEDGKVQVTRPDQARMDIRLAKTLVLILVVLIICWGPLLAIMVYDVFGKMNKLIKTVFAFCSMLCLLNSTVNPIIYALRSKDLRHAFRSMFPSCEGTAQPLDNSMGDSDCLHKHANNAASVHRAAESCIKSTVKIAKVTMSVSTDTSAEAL
T1 sequence (P21554 whole entry): as above

Structure (SMILES)	EC50 (human CB1 (hCB1); [1])	EC50 (human CB2 receptors)	EC50 (human CB1 receptors; [2])	EC50 (human CB1 (hCB1))	EC50 (human CB1 receptors)	hCB1 EC50 (cAMP ag, nM) (human CB1 receptors; [3])	EC50 (human CB2 receptors; inhibition of forskolin-stimulated cAMP, HEK-293 cells, read-out: hCB2 EC50 (cAMP ag))
Cc1cc2cc(C(=O)c3ccccc3OC(F)(F)F)sc2n1CCN1CCOCC1 [Compound 15, (5-Methyl-6-(2-morpholinoethyl)-6H-thieno[2,3-b]pyrrol-2-yl)(2-(trifluoromethoxy)phenyl)methanone]	100 to 1000 nM	< 100 nM	100 to 1000 nM	–	–	–	–
Cc1c(Cl)c2cc(C(=O)c3cccc(Cl)c3Cl)sc2n1CCN1CCOCC1 [Compound 27, (4-chloro-5-methyl-6-(2-morpholinoethyl)-6H-thieno[2,3-b]pyrrol-2-yl)(2,3-dichlorophenyl)methanone]	–	< 100 nM	–	100 to 1000 nM	100 to 1000 nM	–	–
Cc1cc2cc(C(=O)c3cc(Cl)ccc3Cl)sc2n1CCN1CCOCC1 [Compound 35, (2,5-Dichlorophenyl)(5-methyl-6-(2-morpholinoethyl)-6H-thieno[2,3-b]pyrrol-2-yl)methanone]	100 to 1000 nM	< 100 nM	–	–	–	NS (NS means “Not Significant,” which means less than 30% agonist activity when compared to the positive control.)	–
COc1ccc(C(=O)c2cc3cc(C)n(CCCNC(=O)C(F)(F)F)c3s2)cc1 [Compound 76, 2,2,2-Trifluoro-N-(3-(2-(4-methoxybenzoyl)-5-methyl-6H-thieno[2,3-b]pyrrol-6-yl)propyl)acetamide]	< 100 nM	100 to 1000 nM	–	–	–	NS (NS means “Not Significant,” which means less than 30% agonist activity when compared to the positive control.)	–
COc1ccc(C(=O)c2cc3cc(C)n(CCC(C)(C)O)c3s2)cc1 [Compound 77, (6-(3-Hydroxy-3-methylbutyl)-5-methyl-6H-thieno[2,3-b]pyrrol-2-yl)(4-methoxyphenyl)methanone]	< 100 nM	100 to 1000 nM	1000 to 10000 nM	–	–	–	–
Cc1ccc(C(=O)c2cc3cc(C)n(CCN4CCOCC4)c3s2)c(Cl)c1 [Compound 86, (2-Chloro-4-methylphenyl)(5-methyl-6-(2-morpholinoethyl)-6H-thieno[2,3-b]pyrrol-2-yl)methanone]	1000 to 10000 nM	< 100 nM	1000 to 10000 nM	–	–	–	–
COc1ccc(C(=O)c2cc3cc(C)n(CCCN4CCOCC4)c3s2)cc1 [Compound 107, (4-Methoxyphenyl)(5-methyl-6-(3-morpholinopropyl)-6H-thieno[2,3-b]pyrrol-2-yl)methanone]	100 to 1000 nM	–	100 to 1000 nM	–	–	–	< 100 nM
Cc1ccc(C(=O)c2cc3cc(C)n(CCN4CCOCC4)c3s2)cc1 [Compound 124, (5-Methyl-6-(2-morpholinoethyl)-6H-thieno[2,3-b]pyrrol-2-yl)(p-tolyl)methanone]	–	< 100 nM	1000 to 10000 nM	–	–	–	–
Cc1ccc(C(O)c2cc3cc(C)n(CCN4CCOCC4)c3s2)cn1 (stereo not drawn) [Compound 125, (5-Methyl-6-(2-morpholinoethyl)-6H-thieno[2,3-b]pyrrol-2-yl)(6-methylpyridin-3-yl)methanol]	–	100 to 1000 nM	–	–	–	NS (NS means “Not Significant,” which means less than 30% agonist activity when compared to the positive control.)	–
COc1cc(F)c(C(=O)c2cc3cc(C)n(CCN4CCOCC4)c3s2)c(F)c1 [Compound 127, (2,6-difluoro-4-methoxyphenyl)(5-methyl-6-(2-morpholinoethyl)-6H-thieno[2,3-b]pyrrol-2-yl)methanone]	–	< 100 nM	1000 to 10000 nM	–	–	–	–
Cc1ccc(C(=O)c2cc3cc(C)n(CCN4CCOCC4)c3s2)cn1 [Compound 130, (5-methyl-6-(2-morpholinoethyl)-6H-thieno[2,3-b]pyrrol-2-yl)(6-methylpyridin-3-yl)methanone]	–	100 to 1000 nM	–	–	–	NS (NS means “Not Significant,” which means less than 30% agonist activity when compared to the positive control.)	–
COc1ccc(C(=O)c2cc3cc(C)n(CCN4CCOCC4)c3s2)nc1 [Compound 131, (5-methoxypyridin-2-yl)(5-methyl-6-(2-morpholinoethyl)-6H-thieno[2,3-b]pyrrol-2-yl)methanone]	–	< 100 nM	–	–	–	NS (NS means “Not Significant,” which means less than 30% agonist activity when compared to the positive control.)	–
Cc1cc2cc(C(=O)c3ccc(N(C)C(=O)OC(C)(C)C)cc3)sc2n1CCN1CCOCC1 [Compound 132, tert-butylmethyl(4-(5-methyl-6-(2-morpholinoethyl)-6H-thieno[2,3-b]pyrrole-2-carbonyl)phenyl)carbamate]	–	100 to 1000 nM	–	–	–	NS (NS means “Not Significant,” which means less than 30% agonist activity when compared to the positive control.)	–
CNc1ccc(C(=O)c2cc3cc(C)n(CCN4CCOCC4)c3s2)cc1 [Compound 134, (5-methyl-6-(2-morpholinoethyl)-6H-thieno[2,3-b]pyrrol-2-yl)(4-(methylamino)phenyl)methanone]	–	< 100 nM	–	–	–	NS (NS means “Not Significant,” which means less than 30% agonist activity when compared to the positive control.)	–
COc1ccc(C(=O)c2cc3cc(C)n(CCN4CCOCC4)c3s2)c(Cl)n1 [Compound 137, (2-chloro-6-methoxypyridinyl-3-yl)(5-methyl-6-(2-morpholinoethyl)-6H-thieno[2,3-b]pyrrol-2-yl)methanone]	1000 to 10000 nM	< 100 nM	100 to 1000 nM	–	–	–	–
COc1ccc(C(=O)c2cc3c(Cl)c(C)n(CCN4CCOCC4)c3s2)cc1 [Compound 140, (4-chloro-5-methyl-6-(2-morpholinoethyl)-6H-thieno[2,3-b]pyrrol-2-yl)(4-methoxyphenyl)methanone]	–	< 100 nM	–	–	–	NS (NS means “Not Significant,” which means less than 30% agonist activity when compared to the positive control.)	–
CCN(CC)CCn1c(C)cc2cc(C(=O)c3ccc(OC)nc3)sc21 [Compound 142, (6-(2-(diethylamino)ethyl)-5-methyl-6H-thieno[2,3-b]pyrrol-2-yl)(6-methoxypyridin-3-yl)methanone]	–	100 to 1000 nM	–	–	–	NS (NS means “Not Significant,” which means less than 30% agonist activity when compared to the positive control.)	–
COc1ccc(C(=O)c2cc3cc(C)n(CC4CCOCC4)c3s2)cn1 [Compound 144, (6-methoxypyridin-3-yl)(5-methyl-6-((tetrahydro-2H-pyran-4-yl)methyl)-6H-thieno[2,3-b]pyrrol-2-yl)methanone]	–	< 100 nM	–	–	–	NS (NS means “Not Significant,” which means less than 30% agonist activity when compared to the positive control.)	–
COc1ccc(C(=O)c2cc3cc(C)n(CC4CCOCC4)c3s2)c(F)c1 [Compound 145, (2-fluoro-4-methoxyphenyl)(5-methyl-6-((tetrahydro-2H-pyran-4-yl)methyl)-6H-thieno[2,3-b]pyrrol-2-yl)methanone]	–	< 100 nM	1000 to 10000 nM	–	–	–	–
CCOc1ccc(C(=O)c2cc3cc(C)n(CCN4CCOCC4)c3s2)cn1 [Compound 150, (6-Ethoxypyridin-3-yl)(5-methyl-6-(2-morpholinoethyl)-6H-thieno[2,3-b]pyrrol-2-yl)methanone]	–	< 100 nM	–	–	–	NS (NS means “Not Significant,” which means less than 30% agonist activity when compared to the positive control.)	–
COCCN(C)CCn1c(C)cc2cc(C(=O)c3ccc(OC)nc3)sc21 [Compound 157]	> 10000 nM	< 100 nM	–	–	–	NS (NS means “Not Significant,” which means less than 30% agonist activity when compared to the positive control.)	–
COc1ccc(C(=O)c2cc3cc(C)n(CC(OC)OC)c3s2)cn1 [Compound 161, (6-(2,2-dimethoxyethyl)-5-methyl-6H-thieno[2,3-b]pyrrol-2-yl)(6-methoxypyridin-3-yl)methanone]	> 10000 nM	100 to 1000 nM	–	–	–	NS (NS means “Not Significant,” which means less than 30% agonist activity when compared to the positive control.)	–
Cc1cc2cc(C(=O)c3ccc(O)cc3F)sc2n1CCN1CCOCC1 [Compound 165, (2-fluoro-4-hydroxyphenyl)(5-methyl-6-(2-morpholinoethyl)-6H-thieno[2,3-b]pyrrol-2-yl)methanone]	> 10000 nM	< 100 nM	100 to 1000 nM	–	–	–	–
COc1ccc(C(=O)c2cc3cc(C)n(CC4CCC(F)(F)CC4)c3s2)cn1 [Compound 170, (6-((4,4-difluorocyclohexyl)methyl)-5-methyl-6H-thieno[2,3-b]pyrrol-2-yl)(6-methoxypyridin-3-yl)methanone]	< 100 nM	< 100 nM	< 100 nM	–	–	–	–
